Here are results for five compounds from patent US7261876B2, “Multivalent constructs for therapeutic and diagnostic applications” (Bracco International BV, priority 2002, dated 2007).

Read-outs that look alike come from different tables or passages of the source. Positions of bridges follow the written chain, without caps; N, C: chain ends. Non-standard residues stand in square brackets, D forms with d. Residues, ends and D or L forms follow the SMILES beside them. Lys(ivDde) = CC(C)CC(NCCCC[C@H](N)C(=O)O)=C1C(=O)CC(C)(C)CC1=O A value given as a limit tells only on which side of the number the result lay.

In this assay the target is T1, KDR (Homo sapiens, UniProt P35968).
T1 construct: host or cells: HUVEC
Briefly: VEGF-induced KDR receptor activation (phosphorylation) assay in HUVECs. Type of assay: cell-based. Particulars: for inhibition at 10 µM: HUVEC, read-out: inhibition of VEGF-induced KDR phosphorylation. The text has this: Human umbilical vein endothelial cells (HUVECs) (Biowhittaker Cat No. CC-2519) were obtained frozen on dry ice and stored in liquid nitrogen until thawing. These cells were thawed, passaged, and maintained as described by the manufacturer in EGM-MV medium (Biowhittaker Cat No. CC-3125). Cells seeded into 100 mm dishes were allowed to become confluent, then cultured overnight in basal EBM medium lacking serum (Biowhittaker Cat No. CC-3121). The next morning, the medium in the dishes was replaced with 10 mL fresh EBM medium at 37° C. containing either no additive (negative control), 5 ng/mL VEGF (Calbiochem Cat No. 676472 or Peprotech Cat No. 100-20) (positive control), or 5 ng/mL VEGF plus the indicated concentration of the KDR-binding peptide (prepared as described above). In some cases, a neutralizing anti-KDR antibody (Cat No. AF357, R&D Systems) was used as a positive control inhibitor of activation. In such cases, the antibody was pre-incubated with the test cells for 30 min at 37° C. prior to the addition of fresh medium containing both VEGF and the antibody. After incubating the dishes 5 min in a 37° C. tissue culture incubator they were washed three times with ice-cold Dulbecco's phosphate buffered saline (D-PBS) containing calcium and magnesium and placed on ice without removing the last 10 mL of D-PBS. The first dish of a set was drained and 0.5 mL of Triton lysis buffer was added (20 mM Tris base pH 8.0, 137 mM NaCl, 10% glycerol, 1% Triton X-100, 2 mM EDTA (ethylenediaminetetraacetic acid), 1 mM PMSF (phenylmethylsulfonylfluoride), 1 mM sodium orthovanadate, 100 mM NaF, 50 mM sodium pyrophosphate, 10 μg/mL leupeptin, 10 μg/mL aprotinin). The cells were quickly scraped into the lysis buffer using a cell scraper (Falcon, Cat No. 353087), dispersed by pipeting up and down briefly, and the resulting lysate was transferred to the second drained dish of the pair. Another 0.5 mL of lysis buffer was used to rinse out the first dish then transferred to the second dish, which was then also scraped and dispersed. The pooled lysate from the two dishes was transferred to a 1.5 mL Eppindorf tube. The above procedure was repeated for each of the controls and test samples (KDR-binding peptides), one at a time. The lysates were stored on ice until all the samples had been processed. At this point samples were either stored at −70° C. or processed to the end of the assay without interruption.
The lysates, either freshly prepared or frozen and thawed, were precleared by adding 20 μL of protein A-sepharose beads (Sigma 3391, preswollen in D-PBS), washed three times with a large excess of D-PBS, reconstituted with 6 mL D-PBS to generate a 50% slurry) and rocked at 4° C. for 30 min. The beads were pelleted by centrifugation for 2 min in a Picofuge (Stratgene, Cat No. 400550) at 2000×g and the supernatants transferred to new 1.5 mL tubes. 20 μg of anti-Flk-1 antibody (Santa Cruz Biotechnology, Cat No. sc-504) was added to each tube, and the tubes were incubated overnight (16–18 h) at 4° C. on a rotator to immunoprecipitate KDR. The next day 40 μL of protein A-sepharose beads were added to the tubes, which were then incubated at 4° C. for 1 h on a rotator. The beads in each tube were subsequently washed three times by centrifuging for 2 min in a Picofuge, discarding the supernatant, and dispersing the beads in 1 mL freshly added TBST buffer (20 mM Tris base pH 7.5, 137 mM NaCl, and 0.1% Tween 20). After centrifuging and removing the liquid from the last wash, 40 μL of Laemmli SDS-PAGE sample buffer (Bio-Rad, Cat No. 161-0737) was added to each tube and the tubes were capped and boiled for 5 min. After cooling, the beads in each tube were pelleted by centrifuging and the supernatants containing the immunoprecipitated KDR were transferred to new tubes and used immediately or frozen and stored at −70° C. for later analysis.
Detection of phosphorylated KDR as well as total KDR in the immunoprecipitates was carried out by immunoblot analysis. […]

The term inhibition denotes the share of the control response that was lost under treatment.

T1 sequence (P35968 20-1356): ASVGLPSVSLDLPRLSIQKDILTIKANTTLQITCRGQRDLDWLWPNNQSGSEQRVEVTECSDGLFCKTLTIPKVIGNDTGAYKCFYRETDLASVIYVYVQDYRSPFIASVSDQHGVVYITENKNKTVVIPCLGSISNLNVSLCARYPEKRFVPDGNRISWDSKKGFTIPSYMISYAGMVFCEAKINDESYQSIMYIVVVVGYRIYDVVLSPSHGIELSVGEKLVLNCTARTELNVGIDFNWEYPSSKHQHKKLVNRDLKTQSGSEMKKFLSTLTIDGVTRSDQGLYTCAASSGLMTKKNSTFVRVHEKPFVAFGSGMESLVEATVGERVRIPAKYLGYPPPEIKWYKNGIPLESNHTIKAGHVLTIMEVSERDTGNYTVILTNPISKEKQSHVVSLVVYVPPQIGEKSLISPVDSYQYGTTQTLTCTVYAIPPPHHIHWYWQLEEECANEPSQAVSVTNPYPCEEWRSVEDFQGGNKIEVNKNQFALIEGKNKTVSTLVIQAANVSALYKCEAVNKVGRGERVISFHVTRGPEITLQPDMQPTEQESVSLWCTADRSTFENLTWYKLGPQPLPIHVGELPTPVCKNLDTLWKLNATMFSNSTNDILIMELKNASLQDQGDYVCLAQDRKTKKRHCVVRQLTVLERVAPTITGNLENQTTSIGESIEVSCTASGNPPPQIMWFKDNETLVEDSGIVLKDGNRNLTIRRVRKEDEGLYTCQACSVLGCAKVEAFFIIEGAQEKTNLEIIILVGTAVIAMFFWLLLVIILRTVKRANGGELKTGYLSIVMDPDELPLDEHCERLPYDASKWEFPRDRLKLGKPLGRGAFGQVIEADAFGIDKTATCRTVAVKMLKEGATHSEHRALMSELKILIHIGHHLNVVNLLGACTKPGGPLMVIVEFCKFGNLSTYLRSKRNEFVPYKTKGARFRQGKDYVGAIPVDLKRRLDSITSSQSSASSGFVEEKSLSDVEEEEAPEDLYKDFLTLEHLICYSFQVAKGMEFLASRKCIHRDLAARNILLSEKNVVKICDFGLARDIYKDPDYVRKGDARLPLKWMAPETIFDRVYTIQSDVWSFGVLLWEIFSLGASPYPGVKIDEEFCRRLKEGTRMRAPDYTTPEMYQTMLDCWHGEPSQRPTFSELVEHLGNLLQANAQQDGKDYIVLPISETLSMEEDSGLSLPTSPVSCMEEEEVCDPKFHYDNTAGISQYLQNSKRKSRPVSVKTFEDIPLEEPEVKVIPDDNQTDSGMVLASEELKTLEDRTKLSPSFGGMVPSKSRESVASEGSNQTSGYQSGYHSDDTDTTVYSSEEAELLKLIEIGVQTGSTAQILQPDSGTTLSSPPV

For the compound `CSCC[C@@H]1NC(=O)[C@H](CCC(=O)O)NC(=O)[C@@H](NC(=O)[C@H](Cc2c[nH]c3ccccc23)NC(=O)[C@H](CO)NC(=O)CNC(=O)[C@H](CC(=O)O)NC(=O)CNC(C)=O)CSSC[C@@H](C(=O)N[C@@H](Cc2ccccc2)C(=O)N[C@@H](CO)C(=O)N[C@@H](CC(=O)O)C(=O)N[C@@H](CC(=O)O)C(=O)N2CCC[C@H]2C(=O)NCC(=O)NCC(=O)NCC(=O)N[C@@H](CCCCN)C(N)=O)NC(=O)[C@H](CC(N)=O)NC(=O)[C@H](Cc2c[nH]c3ccccc23)NC(=O)[C@H](CCCCNC(CC(C)C)=C2C(=O)CC(C)(C)CC2=O)NC(=O)CNC(=O)[C@H](C(C)C)NC(=O)[C@H](CC(=O)O)NC(=O)[C@H](CCC(N)=O)NC(=O)[C@H](CCCNC(=N)N)NC1=O` [P18-E] (Ac-GDGSWCEMRQDVG[Lys(ivDde)]WNCFSDDPGGGK-NH2; disulfide 6-17), where the note is “10 μM”, the “inhibition of KDR activation” value is recorded as “did not produce significant inhibition of KDR activation”.
Take `CC[C@H](C)[C@@H]1NC(=O)CNC(=O)[C@H](CC(=O)O)NC(=O)[C@@H]2CCCN2C(=O)[C@H](Cc2c[nH]cn2)NC(=O)[C@H](Cc2ccc(O)cc2)NC(=O)[C@@H](NC(=O)[C@H](CCC(=O)O)NC(=O)[C@@H](NC(=O)[C@H](Cc2c[nH]c3ccccc23)NC(=O)CNC(=O)[C@H](C)NC(C)=O)[C@@H](C)CC)CSSC[C@@H](C(=O)N[C@@H](Cc2ccc(O)cc2)C(=O)N[C@@H](Cc2c[nH]cn2)C(=O)N[C@@H](Cc2ccccc2)C(=O)NCC(=O)N[C@H](C(=O)NCC(=O)NCC(=O)NCC(=O)N[C@@H](CCCCN)C(N)=O)[C@@H](C)O)NC1=O` [P2-D] (Ac-AGWIECYHPDGICYHFGTGGGK-NH2; disulfide 6-13): the inhibition at 10 µM is at least 50%.
Regarding `CC(=O)N[C@@H](C)C(=O)N[C@@H](CCC(N)=O)C(=O)N[C@@H](CCCNC(=N)N)C(=O)NCC(=O)N[C@@H](CC(=O)O)C(=O)N[C@@H](Cc1ccc(O)cc1)C(=O)N[C@@H](CCC(N)=O)C(=O)N[C@@H](CCC(=O)O)C(=O)N[C@@H](CCC(N)=O)C(=O)N[C@@H](Cc1ccc(O)cc1)C(=O)N[C@@H](Cc1c[nH]c2ccccc12)C(=O)N[C@@H](Cc1c[nH]cn1)C(=O)N[C@@H](CCC(N)=O)C(=O)N[C@@H](CCC(N)=O)C(=O)N[C@@H](CC(C)C)C(=O)N[C@H](C(=O)N[C@@H](CCC(=O)O)C(=O)N[C@@H](CCC(N)=O)C(=O)N[C@@H](CC(C)C)C(=O)N[C@@H](CCCCNC(CC(C)C)=C1C(=O)CC(C)(C)CC1=O)C(=O)N[C@@H](CC(C)C)C(=O)N[C@@H](CC(C)C)C(=O)NCC(=O)NCC(=O)NCC(=O)N[C@@H](CCCCN)C(N)=O)C(C)C` [P19-E] (Ac-AQRGDYQEQYWHQQLVEQL[Lys(ivDde)]LLGGGK-NH2), where the note is “10 μM”, the “inhibition of KDR activation” value was “did not produce significant inhibition of KDR activation”.
“Ac-AQGDYVYWEIIELTGATDHTPPGGGK-NH2 [P11-D]”: for the setting “10 μM”, the inhibition at 10 µM was at least 50%. Further, the “inhibition of VEGF-induced activation of KDR” value (concentration not given) is on record as “inhibit activation of KDR”.
`CSCC[C@@H]1NC(=O)[C@H]([C@@H](C)O)NC(=O)[C@@H](NC(=O)[C@@H](NC(=O)[C@H](CC(=O)O)NC(=O)[C@@H]2CCCN2C(=O)[C@H](CC(=O)O)NC(=O)CNC(C)=O)[C@@H](C)O)CSSC[C@@H](C(=O)N[C@@H](Cc2ccccc2)C(=O)N2CCC[C@H]2C(=O)N[C@@H](C)C(=O)N[C@@H](CC(=O)O)C(=O)N2CCC[C@H]2C(=O)NCC(=O)NCC(=O)NCC(=O)N[C@@H](CCCCN)C(N)=O)NC(=O)[C@H](Cc2ccc(O)cc2)NC(=O)[C@H](Cc2c[nH]c3ccccc23)NC(=O)[C@H](CCCNC(=N)N)NC(=O)CNC(=O)[C@H](CO)NC(=O)[C@H](CC(=O)O)NC(=O)CNC(=O)[C@H](Cc2c[nH]c3ccccc23)NC1=O` [P8-D] (Ac-GDPDTCTMWGDSGRWYCFPADPGGGK-NH2; disulfide 6-17): the inhibition at 10 µM was at least 50%.
